Reference: patent US9271978B2 (Zenith Epigenetics Corp., priority 2012, dated 2016)

How the values were obtained:
[1] = target: T1, Brd4 bromodomain 1 (BRD4(1)) (Homo sapiens, UniProt O60885); assay: Inhibition of tetra-acetylated histone H4 binding to Brd4 bromodomain 1 (TR-FRET); design: key: Active: Compounds with an IC50 value less than 30 μM were deemed to be active.; Not Active: Compounds with an IC50 value less than 30 μM were deemed to be active; conditions: tetra-acetylated histone H4 peptide, active = IC50 <30 μM
T1 construct: Illustrative results with the first bromodomain of Brd4; made in house; host or cells: E. coli BL21 (DE3)
Method in brief: (§1)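 IC50 values come from dose-response curves of the 665 nm to 620 nm TR-FRET signal decrease, measured after 2 h at room temperature. Reactions contained 200 nM E. coli-expressed His-tagged bromodomain, 25-50 nM biotinylated tetra-acetylated H4 peptide, Eu-streptavidin plus XL665 anti-His antibody, with 30 mM HEPES pH 7.4, 320 mM KF and 0.2% DMSO.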

[2] = target: T2, second bromodomain of Brd2 (BRD2(2)) (Homo sapiens, UniProt P25440); assay: Inhibition of tetra-acetylated histone H4 binding to Brd2 bromodomain 2 (TR-FRET); design: key: Active: Compounds with an IC50 value less than 30 μM were deemed to be active.; Not Active: Compounds with an IC50 value less than 30 μM were deemed to be active; conditions: tetra-acetylated histone H4 peptide, active = IC50 <30 μM
T2 construct: made in house; host or cells: E. coli BL21 (DE3)
Method in brief: as §1

[3] = tested on: human AML MV-4-11 (CRL-9591) cells; assay: Inhibition of cell proliferation in MV4-11 cells; assay type: cell-based; design: key: Active: Compounds with an IC50 value less than 30 μM were deemed to be active.; Not Active: Compounds with an IC50 value less than 30 μM were deemed to be active; conditions: human AML MV-4-11 cells, 72 h; active = IC50 <30 μM
Method in brief: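 IC50 values come from blank-corrected proliferation relative to DMSO controls, read as 490 nm absorbance 3–4 h after CellTiter Aqueous One addition. Before that, cells seeded at 5×10^4/well were exposed for 72 h (37° C, 5% CO2) to triplicate two-fold compound dilutions spanning 30–0.2 μM.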

hIL-6 mRNA = assay: Inhibition of hIL-6 mRNA transcription in U937 cells; assay type: cell-based, human; design: key: Active: Compounds with an IC50 value less than 30 μM were deemed to be active.; Not Active: Compounds with an IC50 value less than 30 μM were deemed to be active; conditions: LPS stimulation, active = IC50 <30 μM
Method in brief: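 Readout is one-step real-time PCR of hIL-6 mRNA, normalized to an internal control and given as fold induction versus control. Cells: PMA (60 ng/mL, 3 days)-differentiated U937 macrophages, compound added 1 h before 1 ug/mL LPS, harvested after 3 h at 37° C.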

hMCP-1 mRNA = assay: Inhibition of hMCP-1 mRNA transcription in human peripheral blood mononuclear cells; assay type: cell-based; design: key: Active: Compounds with an IC50 value less than 30 μM were deemed to be active.; Not Active: Compounds with an IC50 value less than 30 μM were deemed to be active; conditions: 3 h
Protocol: In this example, hMCP-1 mRNA in human peripheral blood mononuclear cells was quantitated to measure the transcriptional inhibition of hMCP-1 when treated with a compound of the present disclosure.
Human Peripheral Blood Mononuclear Cells were plated (1.0×10^5 cells per well) in a 96-well plate in 45 μL RPMI-1640 containing 10% FBS and penicillin/streptomycin. The cells were treated with the test compound (45 μL at 2× concentration), and then the cells were incubated at 37° C. for 3 h before the cells were harvested. At time of harvest, cells were transferred to V-bottom plates and centrifuged (800 rpm, 5 min). Spent media was removed and cell lysis solution (70 μL) was added the cells in each well and incubated for 5-10 min at room temperature, to allow for complete cell lysis and detachment. mRNA was then prepared using the “mRNA Catcher PLUS plate” (Invitrogen), according to the protocol supplied. After the last wash, as much wash buffer as possible was aspirated without allowing the wells to dry. Elution buffer (E3, 70 μL) was then added to each well. mRNA was then eluted by incubating the mRNA Catcher PLUS plate with Elution Buffer for 5 min at 68° C. and then immediately placing the plate on ice.
The eluted mRNA isolated was then used in a one-step quantitative real-time PCR reaction, using components of the Ultra Sense Kit together with Applied Biosystems primer-probe mixes. Real-time PCR data was analyzed, normalizing the Ct values for hMCP-1 to an internal control, prior to determining the fold induction of each unknown sample, relative to the control.

MM1.s cells = assay: In vivo efficacy, multiple myeloma xenograft model using MM1.s cells; design: species or system mouse; conditions: MM1.s multiple myeloma xenograft in mice, oral 25 to 90 mg/kg b.i.d, tumor growth inhibition
Protocol: MM1.s cells (ATCC) were grown under standard cell culture conditions and SCID-Beige strain of female mice age 6-7 weeks were injected with 10×10^6 cells/animal in 100 μl PBS+100 μL Matrigel in the lower left abdominal flank. By approximately day 21 after MM1.s cells injection, mice were randomized based on tumor volume (L×W×H)/2) of average ^˜120 mm^3. Mice were dosed orally with compound at 25 to 90 mg/kg b.i.d in EA006 formulation at 10 mL/kg body weight dose volume. Tumor measurements were taken with electronic micro calipers and body weights measured on alternate days beginning from dosing period. The average tumor volumes, percent Tumor Growth Inhibition (TGI) and % change in body weights were compared relative to Vehicle control animals. The means, statistical analysis and the comparison between groups were calculated using Student's t-test in Excel.

T2 sequence (P25440 344-453 limits assumed): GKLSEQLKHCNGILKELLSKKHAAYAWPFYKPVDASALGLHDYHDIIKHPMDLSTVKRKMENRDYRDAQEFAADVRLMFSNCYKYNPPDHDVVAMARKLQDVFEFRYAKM

Cc1noc(C)c1-c1ccc(=O)n(Cc2ccccc2F)c1 [Example 27, 5-(3,5-Dimethylisoxazol-4-yl)-1-(2-fluorobenzyl)pyridin-2(1H)-one]
Active: FRET activity (IC50 <30 μM) BRD4(1) [1] | FRET activity (IC50 <30 μM) BRD2(2) [2] | Cell Proliferation activity (IC50 <30 μM) [3] | IL-6 activity (IC50 <30 μM) (hIL-6 mRNA) | MCP-1 activity (IC50 < 30 μM) (hMCP-1 mRNA)

Cc1noc(C)c1-c1cc(N)c(=O)n(Cc2ccc(Cl)cc2)c1 [Example 152, 3-Amino-1-(4-chlorobenzyl)-5-(3,5-dimethylisoxazol-4-yl)pyridin-2(1H)-one]
Active: FRET activity (IC50 <30 μM) BRD4(1) [1] | In vivo activity (MM1.s cells)
